From US20210255205A1, “COMPOSITIONS AND METHODS FOR TREATING METABOLIC DISEASE” (THE REGENTS OF THE UNIVERSITY OF CALIFORNIA, priority 2018, published 2021) come the findings set out here.

Experiment [1] concerns the target T1, Aster-B GRAM domain (Mus musculus, UniProt Q80TI0).
T1 construct: B GRAM (Aster-B1-337) was conducted using PIP Strips (Echelon Biosciences); made in house; host or cells: Sf9 insect cells
T1 sequence (Q80TI0 41-377 limits assumed): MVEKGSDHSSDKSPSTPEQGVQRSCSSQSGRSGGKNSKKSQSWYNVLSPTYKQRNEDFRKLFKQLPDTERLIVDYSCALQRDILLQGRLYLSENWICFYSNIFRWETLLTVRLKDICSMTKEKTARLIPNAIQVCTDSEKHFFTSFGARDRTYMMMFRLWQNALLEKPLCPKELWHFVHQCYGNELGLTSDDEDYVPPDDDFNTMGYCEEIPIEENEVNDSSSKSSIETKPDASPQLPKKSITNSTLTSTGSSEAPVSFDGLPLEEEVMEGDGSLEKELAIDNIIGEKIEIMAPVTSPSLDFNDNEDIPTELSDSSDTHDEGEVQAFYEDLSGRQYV
Put plainly: liposome co-sedimentation assay. In kind it is binding. The following applies: sucrose-loaded heavy liposomes, 80-85% PC or PS. On the procedure: FIG. 9A: Protein-lipid overlay over purified mouse Aster-B GRAM domain with various phospholipid species. PA and PS correspond to phosphatidic acid and phosphatidylserine, respectively. FIG. 9A discloses “6xHis” as SEQ ID NO: 11. FIG. 9B: Purified Aster-B GRAM domain was incubated with sucrose-loaded heavy liposomes containing Dansyl-PE and 80-85% PC or 80-85% PS+/−5% Cholesterol. Liposomes were sedimented, washed, and analyzed by immunoblotting for associated Aster-B Gram protein (anti-His antibody). FIG. 9C: Localization of full-length and B ΔGRAM Aster-B-GFP constructs with plasma membrane (CellMask stain) expressed in HeLa cells in the presence or absence of cholesterol loading imaged by live cell confocal microscopy. […] FIG. 9E: Quantification of Aster-B PH-EGFP intensity in the TIRF plane upon cholesterol loading (left panel; n=2-3 cells, error bars+/−SD). […] TIRF videos recorded 5 slices (slices 3-5 were used to calculate FO) before cholesterol addition.
(§1) The Aster proteins contain an N-terminal GRAM domain, a structural motif related to the pleckstrin homology domain that is found in glucosyltransferases, Rab-like GTPase activators, myotubularins, and other membrane-associated proteins. […] Given that phosphatidylserine is highly enriched in the inner leaflet of the PM, it was further determined if the Aster-B GRAM domain was associated with phosphatidylserine-containing liposomes.

For experiment [2], the target named is T1, Aster-B GRAM domain. Put plainly: protein-lipid overlay (PIP Strips). In kind it is binding. The following applies: lipid strip, 100 pmol lipid per spot. On the procedure:
FIG. 9A: Protein-lipid overlay over purified mouse Aster-B GRAM domain with various phospholipid species. PA and PS correspond to phosphatidic acid and phosphatidylserine, respectively. FIG. 9A discloses “6xHis” as SEQ ID NO: 11. FIG. 9B: Purified Aster-B GRAM domain was incubated with sucrose-loaded heavy liposomes containing Dansyl-PE and 80-85% PC or 80-85% PS+/−5% Cholesterol. Liposomes were sedimented, washed, and analyzed by immunoblotting for associated Aster-B Gram protein (anti-His antibody). FIG. 9C: Localization of full-length and B ΔGRAM Aster-B-GFP constructs with plasma membrane (CellMask stain) expressed in HeLa cells in the presence or absence of cholesterol loading imaged by live cell confocal microscopy. […] FIG. 9E: Quantification of Aster-B PH-EGFP intensity in the TIRF plane upon cholesterol loading (left panel; n=2-3 cells, error bars+/−SD). […] TIRF videos recorded 5 slices (slices 3-5 were used to calculate FO) before cholesterol addition. […]
as §1

Another experiment concerns ASTER domain of Aster-B. Put plainly: GST agarose assay for [^3H]cholesterol binding. More on the design: species or system mouse. The following applies: 150 nM protein, 0.003% Triton X-100 in PBS.

Protocol for ASTER domain of Aster-B: Reactions were carried out in binding buffer (0.003% Triton X-100 in 1× PBS) containing 150 nM of Aster-B ASTER protein and [^3H]cholesterol. After incubation for 30 min at room temperature, the mixture was incubated with pre-equilibrated of glutathione agarose resin (Pierce PI16100) at 4° C. for 2 h, then loaded onto a column and washed. The protein-bound [^3H]cholesterol was eluted with 10 mM GSH peptide and quantified by scintillation counting.

In the case of “phosphatidylserine [phosphatidylserine (PS)]”, the “co-sedimentation of GRAM domain with liposomes” value at Aster-B GRAM domain [1] is “pelleted with”. The “interaction with purified Aster-B GRAM domain” value at Aster-B GRAM domain [2] is on record as “interacted strongly”.

As to `CC(C)CCC[C@@H](C)[C@H]1CC[C@H]2[C@@H]3CC=C4C[C@@H](O)CC[C@]4(C)[C@H]3CC[C@]12C` [[^3H]cholesterol], in the experiment on ASTER domain of Aster-B, the “direct binding to the ASTER domain of Aster-B” value is “direct binding”.
